The results in this text go back to patent publication US8609610B2, “Inhibitors of the trypsin-like site of the proteasome and methods of use thereof” (Trustees of Dartmouth College, priority 2011, dated 2013).

Assay [1] concerns the target T1, trypsin-like site of 26S proteasomes (Oryctolagus cuniculus, UniProt G1SWK8).
T1 construct: IC50 for sites in 26S proteasomes: Tr-L; other: purified 26S proteasomes; other: 26S proteasomes from rabbit muscles
T1 sequence (G1SWK8 1-271): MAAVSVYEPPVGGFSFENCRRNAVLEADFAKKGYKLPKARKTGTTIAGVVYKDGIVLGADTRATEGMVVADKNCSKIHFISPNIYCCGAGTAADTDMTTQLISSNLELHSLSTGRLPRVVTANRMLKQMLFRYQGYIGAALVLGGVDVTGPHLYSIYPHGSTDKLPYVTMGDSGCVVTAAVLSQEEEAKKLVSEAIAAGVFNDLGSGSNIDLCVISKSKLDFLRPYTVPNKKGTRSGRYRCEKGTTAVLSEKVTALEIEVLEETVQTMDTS
The assay is described as follows: Inhibition of purified 26S proteasomes, substrate Ac-RLR-amc. The assay is classed as biochemical, rabbit. Particulars: 26S proteasomes from rabbit muscles.

Assay [2] deals with trypsin-like site of 26S proteasomes. The description is as above. The assay is classed as biochemical, rabbit.
In assay [3] the target is T2, chymotrypsin-like site of 26S proteasomes (Oryctolagus cuniculus, UniProt G1T4Q9).
T2 sequence (G1T4Q9 1-263): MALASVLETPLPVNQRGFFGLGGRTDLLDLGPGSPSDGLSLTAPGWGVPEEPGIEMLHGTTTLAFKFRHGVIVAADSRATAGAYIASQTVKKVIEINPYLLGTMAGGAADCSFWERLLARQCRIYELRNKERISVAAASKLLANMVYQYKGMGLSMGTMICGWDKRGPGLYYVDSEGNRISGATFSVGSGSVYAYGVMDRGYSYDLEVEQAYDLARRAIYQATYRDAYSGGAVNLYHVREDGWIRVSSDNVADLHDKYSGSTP
In words: Inhibition of purified 26S proteasomes, substrate Suc-LLVY-amc. It is filed as biochemical, rabbit. Conditions: >>30 no inhibition at 30 μM, >30 inhibition between 10 and 50% at 30 μM, read-out: IC50 for sites in 26S proteasomes: Chym-L.

Assay [4] deals with caspase-like site of 26S proteasomes (Oryctolagus cuniculus, UniProt A0A5F9DQW2). The assay is described as follows: Inhibition of purified 26S proteasomes, substrate Ac-nLPnLD-amc. The assay is classed as biochemical, rabbit. Conditions: >>30 no inhibition at 30 μM, >30 inhibition between 10 and 50% at 30 μM, read-out: IC50 for sites in 26S proteasomes: Casp-L. The procedure:
26S proteasomes were purified from rabbit muscle using known methods (Screen, et al. (2010) supra). […] NOVEX Bis-Tris gels (12%, Invitrogen) with MOPS running buffer were used for electrophoretic separation of catalytic subunits modified by active-site probes. Inhibition of active sites inside cells was assayed using luminescent PROTEASOMEGLO assay (Promega; Moravec, et al. (2009) Anal. Biochem. 387:294-302) according to known methods (Britton, et al. (2009) supra).

Assay [5] deals with T3, trypsin-like sites (β2) of proteasome in MM cells (Homo sapiens, UniProt Q99436).
T3 construct: endogenous in cells; host or cells: NCI-H929, RPMI-8226 and other MM cell lines
T3 sequence (Q99436 44-277): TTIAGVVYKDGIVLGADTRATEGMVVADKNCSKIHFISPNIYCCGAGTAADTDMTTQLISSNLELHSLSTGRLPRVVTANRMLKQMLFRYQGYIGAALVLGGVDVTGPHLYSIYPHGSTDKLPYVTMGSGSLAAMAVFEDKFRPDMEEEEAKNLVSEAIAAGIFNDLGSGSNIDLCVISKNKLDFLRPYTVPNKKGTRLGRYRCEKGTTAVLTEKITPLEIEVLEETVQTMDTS
In words: PROTEASOMEGLO assay of proteasome inhibition in MM cells. It is filed as cell-based. Particulars: NCI-H929 cells treated overnight.

The subject of the next assay is Cathepsin B, H, L, S. In words: Cathepsin activity with pan-cathepsin substrate Z-FR-amc. The assay is classed as cell-based. The procedure: (§1) Cathepsin B, H, L, S activity was measured with pan-cathepsin substrate Z-FR-amc (Kirschke & Wiederanders (1994) Methods Enzymol. 244:500-11) in extracts of cytosol-less cells at pH 6.0 (Screen, et al. (2010) supra). Cathepsin D activity was measured in cytosol-less extracts using SENSOLYTE 520 Cathepsin D Fluorometric Assay Kit (AnaSpec). Combined cathepsin D and E activity was measured using the same kit, in which cathepsin D substrate provided with the kit was replaced with 7-Methoxycoumarin-[…](Dnp)-X′-NH2 (SEQ ID NO:10; where “X′” stand for D-Arg) internally quenched fluorogenic substrate of cathepsin D and E. In this case, pH 3.0 assay buffer used for cell extraction. All activity observed using both procedures was inhibited by more than 98% by specific inhibitor of aspartic proteases pepstatin A.

The test system of assay [6] is Caspase-3/7 activity in NCI-H929 and MM1.R cell lines. In words: APO-ONE caspase-3/7 assay. Conditions: combination of NC-001 and NC-002. The assay is classed as cell-based. As to the method: RPMI-8226 and NCI-H929 cells were cultured in RPMI-1640 supplemented with 10% fetal bovine serum, penicillin, streptomycin, and plasmocin in 5% CO2 humidified incubator. HEK-293T cells were cultured in DMEM containing 10% fetal calf serum, 10 units/mL penicillin, and 10 μg/mL streptomycin in a 7% CO2 humidified incubator. Viability of multiple myeloma cells was measured with ALAMAR BLUE mitochondrial dye conversion assay. Viability of peripheral blood mononuclear cells (PBMNCs) was measured using CELL TITER-GLO luminescent cell viability assay (Promega), which is based on quantification of ATP present in the cells. Caspase-3/7 activity was measured using APO-ONE 3/7 homogeneous assay (Promega).

The subject of a further assay is β2 and β2i sites. In words: MV-151 label-competition in extracts of RPMI-8226 MM cells. The assay is classed as biochemical. Particulars: extracts of RPMI-8226 cells, MV-151 probe. The text has this:
Multiple myeloma cells express constitutive proteasomes and immunoproteasomes, and substrates used for the measurement of activity were cleaved by both. To determine whether there were any differences in inhibition of constitutive proteasomes or immunoproteasomes by NC-002, NC-012, and NC-022, the fluorescent activity-based probe MV-151 (Verdoes, et al. (2006) Chem. Biol. 13:1217-1226) was used in a label-competition experiment. Extracts of RPMI-8226 MM cells (which express more immunoproteasomes than NCI-H929 cells) were treated first with the NC inhibitors and then with the MV-151 probe. This was followed by fractionation on SDS-PAGE to separate proteasome subunits and imaging to reveal those subunits labeled by the probe (i.e., unmodified by the inhibitors).

A further assay addresses T4, cathepsin D (Homo sapiens, UniProt P07339).
T4 construct: endogenous in cells
In words: Cathepsin D activity assay (SENSOLYTE 520). It is filed as cell-based. The procedure: as §1

For assay [7], the system named is proteasome catalytic subunits in NCI-H929 cells. The assay is described as follows: Isolation and identification of polypeptides modified by az-NC-002. It is filed as cell-based. Particulars: BioP ligation, streptavidin isolation, mass-spectrometry. As to the method: Cells were treated with the activity-based site probe overnight and lysed with 50 mM Tris-HCl, 10% glycerol, 5 mM MgCl2, 0.5 mM EDTA, 0.5% CHAPS, 1 mM ATP. […] After on-beads trypsin digestion, samples were analyzed by LC-MS/MS (Florea, et al. (2010) Chem. Biol. 17:795-801). IRDYE 800 CW-conjugated streptavidin was purchased from Rockland, hsc71 antibodies from Abcam (Cat #19136), and β2 antibodies from Abgent (Cat #AP2914b).
To further confirm that NC-002, NC-012 and NC-022 were specific for the trypsin-like sites and that the biological activity was not due to off-target effects, az-NC-002 was synthesized as an NC-002-derived, activity-based probe. […] One major az-NC-002-specific streptavidin-reactive band was detected. […] A weaker band of slightly lower mobility, matching the mobility of β2i band, was also detected. […] A number of endogenously biotinylated proteins in the 70-100 kDa region were also detected and can serve as a loading control.
To further confirm that the probe covalently modified β2 and β2i subunits, proteasome was denatured after BioP modification, biotinylated polypeptides were isolated on streptavidin beads, and bound polypeptides were identified by mass-spectrometry after on-beads trypsin digestion. […] No peptides derived from other catalytic subunits were detected.

Assay [8] concerns the target β2 (trypsin-like site) of proteasome in HEK-293T cells (Homo sapiens, UniProt P49720+Q99436). The assay is described as follows: Competition assay in living HEK-293T cells with activity-based probe. The assay is classed as cell-based. The procedure: Proteasome inhibition in MM cells was measured with luminogenic substrates using PROTEASOMEGLO assay (Promega). […] An aliquot of culture was pelleted and medium was removed and replaced with PBS. The resulting cell suspension was mixed with luminogenic substrates in the manufacturer-provided lysis/assay buffer. After 3 minutes mixing on an orbital shaker, the plate was incubated in the dark for additional 17 minutes, followed by the measurements of the luminescence, performed in triplicate for each substrate/data point. Data were analyzed as for purified proteasomes. […] Cells (1×10^6 per well of a 6-well plate) were incubated with the inhibitors for 4 hours at 37° C. and this was followed by a 2 hour incubation with 5 μM BODIPY-TMR-epoxomicin. Subsequently, the medium was removed and the cells were washed with PBS and harvested. […] The supernatant was collected and the protein concentration was determined by the Bradford assay, and used to normalize gel loading. The samples were analysed by SDS-PAGE and fluorescent densitometry as described for competition experiment in cell lysates. IC50 values were calculated from three independent experiments using […] PRISM software.
Human embryonic kidney cells (some 1×10^6) were cultured in 6-well plates in DMEM containing 10% fetal calf serum, 10 units/mL penicillin and 10 μg/mL streptomycin in a 7% CO2 humidified incubator at 37° C. overnight. Part of the medium was taken and to this was added the appropriate inhibitor in DMSO (1 μL of a 1,000× stock solution), after which the medium was added to the cells. The cells were incubated with the inhibitors for 4 hours at 37° C. and this was followed by addition of MV151 (1 μL of a 5 mM stock solution in DMSO) and incubation for 2 hours at 37° C. Next, the medium was removed and the cells were washed with PBS and harvested. […] The supernatant was collected and the protein concentration was determined by the Bradford assay. All samples were normalized to the same protein concentration with lysis buffer.

Another assay concerns the target T5, β2 proteasome subunit (Homo sapiens, UniProt P49720+Q99436).
T5 construct: Whole cell lysates of HEK-293T or EL-4 cells were made by sonication; endogenous in cells; host or cells: HEK-293T
The assay is described as follows: Competition assay in HEK-293T cell lysate with MV151. The assay is classed as biochemical. Particulars: HEK-293T lysate, 5 μM.

The target in a further assay is T6, β5 proteasome subunit (Homo sapiens, UniProt P20618+P28074).
T6 construct: Whole cell lysates of HEK-293T or EL-4 cells were made by sonication; endogenous in cells; host or cells: HEK-293T
Described as above. The assay is classed as biochemical. Particulars: HEK-293T lysate, 5 μM. The procedure:
Whole cell lysates of HEK-293T or EL-4 cells were made by sonication in 3 volumes of lysis buffer containing 50 mM Tris pH 7.5, 1 mM DTT, 5 mM MgCl2, 250 mM sucrose, 2 mM ATP, 0.025% digitonin. Protein concentration was determined by the Bradford assay. Cell lysates (13.5 μg total protein for HEK lysates and 9 μg total protein for EL-4 lysates) were exposed to the inhibitors for 1 hour at 37° C. prior to incubation with MV151 (0.5 μM) or BODIPY-TMR-epoxomicin (0.5 μM) for an additional 1 hour at 37° C. Reaction mixtures were boiled with Laemmli's buffer containing (3-mercaptoethanol for 5 minutes before being resolved by 12.5% SDS-PAGE. In-gel detection of residual proteasome activity was performed in the wet gel slabs directly on the TYPHOON Variable Mode Imager (Amersham Biosciences) using the Cy3/Tamra settings (λex 532 nm, λem 560 nm) to detect MV151, BODIPY-TMR-epoxomicin and Cy2/Fam settings (λex 488 nm, λem 520 nm) to detect compounds 39 and 59.
The inhibition potential of the inhibitors for each of the catalytically active subunits was assessed in competition assays employing extracts of human embryonic kidney cells (HEK-293T) and mouse lymphoma cells (EL-4) in combination with the fluorescent broad spectrum proteasome probe MV151 (Verdoes, et al. (2006) Chem. Biol. 13:1217-1226). Competitive inhibition of a proteasome active site is reflected by the disappearance of the corresponding band on a gel.

T4 sequence (P07339 65-412): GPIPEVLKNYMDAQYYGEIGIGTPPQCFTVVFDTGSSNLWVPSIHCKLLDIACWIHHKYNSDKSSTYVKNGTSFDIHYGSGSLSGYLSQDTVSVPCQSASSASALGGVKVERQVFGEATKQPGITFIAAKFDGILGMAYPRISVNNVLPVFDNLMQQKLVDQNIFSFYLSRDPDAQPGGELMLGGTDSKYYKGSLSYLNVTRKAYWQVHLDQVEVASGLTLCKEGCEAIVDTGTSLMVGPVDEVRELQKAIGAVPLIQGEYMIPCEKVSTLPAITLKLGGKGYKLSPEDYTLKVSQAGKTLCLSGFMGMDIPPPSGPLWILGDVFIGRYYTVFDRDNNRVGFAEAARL
Sequence of caspase-like site of 26S proteasomes (A0A5F9DQW2 1-212): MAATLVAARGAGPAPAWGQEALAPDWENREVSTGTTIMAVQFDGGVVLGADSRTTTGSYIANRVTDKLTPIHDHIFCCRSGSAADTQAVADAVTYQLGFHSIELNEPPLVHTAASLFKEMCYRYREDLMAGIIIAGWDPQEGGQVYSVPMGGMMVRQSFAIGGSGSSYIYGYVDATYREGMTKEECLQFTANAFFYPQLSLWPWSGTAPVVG

For the compound `CC(=O)N[C@@H](CC(C)C)C(=O)N[C@@H](CC(C)C)C(=O)N[C@@H](CCCNC(=N)N)C(=O)[C@@]1(C)CO1` [NC-002, Ac-Leu-Leu-Arg-ek], the “proteasome inhibitory potential on purified 26S proteasomes” value in [1] was “potent and specific inhibitors of the trypsin-like sites”. The “IC50 (Chym-L)/IC50 (Tr-L)” value in assay [2] (rabbit 26S proteasomes) was greater than 30. Besides, the IC50 in [3] and in assay [4] was greater than 30 µM in each case. In [5], the “inhibition of trypsin-like activity in live cells” value is on record as “sub-micromolar concentrations”. Moreover, the “inhibition of lysosomal cysteine proteases” value with Cathepsin B, H, L, S is “did not inhibit”. In assay [6], the “caspase activity (apoptosis)” value is “did not cause any significant increase in caspase activity”. For the same compound, the “inhibition of constitutive (β2) versus immunoproteasome (β2i) trypsin-like sites” value in the assay with β2 and β2i sites was “equipotent inhibitors of the trypsin-like sites of constitutive and immunoproteasomes”.
Consider `CC(C)C[C@H](NC(=O)CN=[N+]=[N-])C(=O)N[C@@H](CC(C)C)C(=O)N[C@@H](CCCNC(=N)N)C(=O)[C@@]1(C)CO1` [az-NC-002, Az-Gly-Leu-Leu-Arg-ek], for which the “inhibition of cathepsin D” value against cathepsin D is reported as “no significant inhibition”. The “subunits modified by the probe” value in assay [7] is “trypsin-like site-specific activity-based probe”.
With “BODIPY-triazole-Phe-Leu-Leu-Phe (4-CH2NH2)-VS [Compound 39]”, in assay [2], the “inhibition of trypsin- and chymotrypsin-like activities” value is “equipotently inhibited trypsin- and chymotrypsin-like activities”; the “specificity after attachment of BODIPY-FL dye” value is “complete loss of specificity”. In addition, in assay [8] (5 μM), the “inhibition of β2 and β5 in living cells” value is on record as “seemed not to be competed away at all”. Also, the “inhibition of proteasome activity in living cells” value in [8] (50 μM) was “not all proteasome activity was silenced”. The “inhibition of β2 in cell lysate” value on β2 proteasome subunit was “all β2 and β5 proteasomal activity was inhibited”. Also, the “inhibition of β5 in cell lysate” value at β5 proteasome subunit is “all β2 and β5 proteasomal activity was inhibited”.

In general, IC50 refers to the concentration needed to halve the response being measured.
